Results published in PMC7867085, “In Vitro and In Vivo Antitumor Activity of Indolo[2,3-b] Quinolines, Natural Product Analogs from Neocryptolepine Alkaloid” (Molecules, 2021).
“Also recorded” adds a separate entry of the source.

Assays:
[1] = tested on: normal mice (liver homogenate); test: Lipid peroxidation and antioxidant enzymes in liver homogenate of normal mice; format: in vivo, Swiss female albino mice; conditions: 100 mg/kg SC for 5 days
Source text: Measuring antioxidant enzyme levels and lipid peroxidation was utilized to evaluate the pharmacological effect of indoloquinoline derivatives. The study group was divided into two subgroups, normal mice and tumor-bearing mice. Each subgroup is further subdivided into two groups, one group received indoloquinoline derivatives, and the other group was marked as a placebo group.
The eradicated liver was double washed first, with ice-cold normal saline then, with cold 0.15 mol/L Tris-HCl buffer (pH 7.4). The clean organ was dried and weighed, and used to prepare a 10% w/v homogenate in 0.15 mol/L Tris-HCl buffer. A portion of the prepared homogenate was centrifuged at 1500 rpm for 15 min at 4 °C [47] and used for estimating lipid peroxidation, SOD [48] and CAT [49] analysis was carried out using the supernatant.

[2] = tested on: splenic lymphocytes of normal mice; test: Splenic lymphocyte count in normal mice; format: in vivo, Swiss female albino mice; conditions: 100 mg/kg SC for 5 days
Description: The difference in the number of splenic lymphocytes between the study groups, including groups given indoloquinoline derivatives, control group, and groups with a tumor, were evaluated. Normal mice administered indoloquinoline derivatives at a dose of 100 mg/kg for 5 constitutive days subcutaneously reported statistical similarities with the untreated normal mice group regarding the count of splenic lymphocytes (Table 6).
Under sterile conditions, the spleens were eliminated, and the single cell suspension was made in RPMI 1640 medium. Splenic lymphocytes were purified as described earlier. Viable splenic lymphocytes were counted in a hemocytometer by trypan blue exclusion test and used for further analysis.
During the study, female Swiss albino mice (normal, treated, and untreated) were anesthetized. Under sterile conditions, after scattering 70% alcohol on the abdominal region, the spleen was removed and then injected with a minor amount of PBS. Spleen was pressed across the fine mesh of the tissue grinder. After centrifuging the produced cell suspension at 1000 rpm for 5 min, the supernatant was discarded, and the cells were washed at room temperature by centrifugation in PBS twice. Trypan blue extrusion method was used to evaluate cell viability, and a phase-contrast microscope was used for cell counting. The experiment was done in tripartite.

[3] = tested on: EAC solid tumor; test: Histopathological examination of tumor sections (H and E); format: in vivo, mice; conditions: for tumor section histopathology (necrosis): EAC bearing mouse, H and E × 200, Figure 3; for tumor cell death (histopathology): EAC solid tumor, compared with other molecules
Description: Results of the treated group and that of the positive control group are illustrated in (Figure 3 and Figure 4). […] At the same time, the count of mitotic cells was less in the studied analogs 6a, 6b, 6c and 6d as measured up to that of the positive control group.
(§1) Each tumor or liver sample for each mouse was separated and kept in 10% formalin solution and dehydrated in a graded alcohol series. Each specimen was treated with xylene and then inserted in paraffin blocks. The specimen was cut into sections, the thickness of each section is five-micron, hematoxylin, and eosin (H and E) were added for staining. The stained liver specimen was used to assess the degree of degradation and necrosis using a reported scaling system; the scaling system use numbers from 0 to 3 to reflect necrosis severity. Starting from 0, which indicates no necrosis and moves to mild, moderate, and severe necrosis indicated by 1, 2, and 3, respectively. Mild and moderate stages are defined as focal and multifocal necrosis or degradation of hepatocytes, respectively, while severe is characterized by local immense, spread out necrosis or damaged liver cells. Tumor specimen stained with H and E were used to evaluate the severity and percentage of necrosis by the same previously mentioned scaling system.
H and E-stained slides of tumor specimens were used also used to calculate the H score as well as the mitosis counting and apoptotic tumor cell counting, ten arbitrarily chosen microscopic fields were used for each mitosis and apoptotic tumor cell counting, this was considered as examining at least 1000 tumor cells. High magnification (400×) was used for microscopic examination.

[4] = tested on: liver; test: Histopathological examination of liver sections (H and E); format: in vivo; conditions: for liver degenerative changes (histopathology): mice treated with compound, Figure 5
Source text: It is well known that the vital organ enables the human body to get rid of toxins, as organic xenobiotics in the liver. Tissue changes in the liver are linked with histological abnormalities. Possible unwanted effects of the Indoloquinolines were checked in the mice group that received the compound; 5 days after subcutaneous injection of the compounds, tumors and livers were fixed in 10% neutral buffered formalin solution and embedded in paraffin. Sections, […], were stained using hematoxylin and eosin (H and E).
as §1

[5] = 5 days after subcutaneous injection, H and E

Compound	CAT [1] [KU/mg Tissue/s]	Lipid Peroxidation [1] [nmol MDA/g Tissue]	SOD [1] [U/g Tissue]	Splenic Lymphocyte Number [2]	tumor section histopathology (necrosis) [3]	necrosis of liver cells ([4]; mouse, in vivo, sc)	antimitotic effect (count of mitotic cells) ([3]; EAC bearing mice, H and E)	tumor cell death (histopathology) [3]	necrosis of liver cells [4, 5]	liver degenerative changes (histopathology) ([4]; H and E)
5(5-Methyl-5H-indolo[2,3-b] quinolin-11-ylamino) Pyrimidine-2,4(1H,3H)-dione [Compound 6c]	6.2 ± 0.30	251.68 ± 11.9	138.6 ± 6.0	13.29 ± 1.12 10^6/mL	massive area of coagulative necrosis (Ne) with viable tumor cells	did not cause necrosis to liver cells				
5-Methyl-N-(4-methylpiperazin-1-yl)-5H-indolo[2,3-b] Quinolin-11-amine [Compound 6d]	6.1 ± 0.20	248.69 ± 5.5	137.9 ± 3.9	12.8 ± 0.04 10^6/mL	massive geographic coagulative necrosis (Ne) surrounded by viable tumor cells	did not cause necrosis to liver cells				
Cn1c2nc3ccccc3c-2c(Nc2ccc(Br)cc2F)c2ccccc21 [Compound 6a, N-(4-Bromo-2-fluorophenyl)-5-methyl-5H-indolo[2,3-b] Quinolin-11-amine]	6.5 ± 0.39	252.1 ± 7.2	139.4 ± 2.9	13.3 ± 1.08 10^6/mL	massive, coagulated necrosis (Ne) with minimal residual malignant cells		greatest antimitotic effect	supremely cell death percentage and apoptosis	did not cause necrosis to liver cells	mild degenerative changes
Cn1c2nc3ccccc3c-2c(NCCc2c[nH]c3ccccc23)c2ccccc21 [Compound 6b, N-(2-(1H-Indol-3-yl)ethyl)-5-methyl-5H-indolo[2,3-b] Quinolin-11-amine]	5.7 ± 0.31	247.96 ± 6.3	140.2 ± 1.9	12.97 ± 0.65 10^6/mL	extensive necrosis (Ne) with minimal viable malignant cells			supremely cell death percentage and apoptosis; also recorded: highest effect in tumor cell death without harming liver cells	did not cause necrosis to liver cells	mild diffuse degenerative changes, mild congestion, and scattered lymphocytes
